# Laboratory results as given in patent publication US20250339426A1, “GCN2 MODULATOR FOR TREATING CANCER” (HIBERCELL, INC., priority 2022, published 2025).
# Experiments:
# [1] = system: HT1080 (human fibrosarcoma cells); assay: In vivo tumor growth inhibition, HT1080 xenograft; design: species or system BALB/c nude mice; details: both 1 and 3 mg/kg, oral gavage
# Protocol: HT1080 (human fibrosarcoma cells): Female 6-8 weeks old BALB/c nude mice were inoculated subcutaneously on the right flank with HT1080 tumor cells (1×10^7) in 0.1 ml of EMEM medium without serum for tumor development. The treatments were started when the mean tumor size reached approximately 109 mm^3 at Day 4 post inoculation and continued until end of study by oral gavage dosing of HC-7366 at listed doses (vehicle, 0.3 mg/kg HC-7366 BID (two times per day), 1 mg/kg HC-7366 BID, 3 mg/kg HC-7366 BID, 0.6 mg/kg HC-7366 QD (one time per day), 2 mg/kg HC-7366 QD, or 6 mg/kg HC-7366 QD, FIGS. 6-7).
# (§1) [formula] • 2.2.2 Tumor Measurements: The measurement of tumor size was conducted three times weekly with a caliper and recorded. The tumor volume (mm^3) was estimated using the formula: TV=a×b^2/2, where “a” and “b” is long and short diameters of a tumor, respectively. Tumor volume was calculated using the formula [tumor volume (mm^3)=π/6×length×width^2).
# (§2) Regression was calculated using the formula=100×ΔT/T initial, if ΔT<0. Animals with 0 mm^3 tumor volume (no measurable tumor) for three consecutive measurements were considered as complete responders and animals with 50% tumor regressions were partial responders.
# [2] = system: DLD-1 (human colorectal cancer cells); assay: In vivo tumor growth inhibition, DLD-1 xenograft; design: species or system BALB/c nude mice; details: for TGI %: combination studies (Examples 9, 11)
# Protocol: (§3) DLD-1 (human colorectal cancer cells): Female 6-8 weeks old BALB/c nude mice were inoculated subcutaneously on the right flank with DLD-1 tumor cells (5×10^6) in 0.1 ml of RPMI1640 medium without serum for tumor development. The treatments were started when the mean tumor size reached approximately 195 mm^3 at Day 7 post inoculation and continued until end of study by twice daily oral gavage dosing of HC-7366 at listed doses (vehicle, 0.3 mg/kg HC-7366, 1 mg/kg HC-7366, 3 mg/kg HC-7366, 10 mg/kg HC-7366, or 30 mg/kg HC-7366, FIG. 10). For the time course study, tumors were harvested at Days 4, 7 and 14. Tumors were then used for IHC and RNAseq experiments (see Example 21).
# as §1, §2
# (§4) The effect of DC101 in combination with HC-7366 in DLD-1 tumor-bearing mice was evaluated using protocols analogous to those described in Example 6. Mice were treated with 3 or 30 mg/kg HC-7366, twice daily by oral gavage. DC101 was administered at 20 mg/kg twice weekly and with twice daily dosing via intraperitoneal injection.
# as §4, with “5-fluorouracil” for “DC101”, “75” for “20”, “once a week,” for “twice weekly and with”, “daily” for “daily dosing”, “intravenous” for “intraperitoneal”
# [3] = Tolerability by body weight in tumor-bearing mice; format: in vivo; details: NCI-H1975 study
# Protocol: For routine monitoring, all study animals were monitored not only for tumor growth but also behavior such as mobility, food and water consumption (by cage side checking only), body weight (BW), eye/hair matting and any other abnormal effect. Any mortality and/or abnormal clinical signs were recorded. • 2.2.1 Body Weight (BW): Body weights of all animals were measured and recorded three times weekly throughout the study. Body weight change, expressed in %, is calculated using the following formula: […]
# [4] = system: ATF4, ASNS, PSAT1 in MOLM-16 cells; assay: Jess protein analysis, MOLM-16 cells; format: cell-based, human; details: sgControl vs sgGCN2, 24 hr
# Protocol: Cell lysates were obtained from MOLM-16 sgControl or sgGCN2 cells treated with HC-7366 (0, 0.01, 0.1 and 10 μM) for 24 hr. Ice cold 1x radioimmunoprecipitation assay (RIPA) lysis buffer supplemented with protease and phosphatase inhibitors was added to the cell pellets, on ice. After 30 min on ice, the cell lysates were centrifuged at 4° C., 12,000 rpm for 15 minutes and the supernatant collected. Protein concentration was determined using BCA kit. The cell lysates were mixed with 5× sodium dodecyl sulfate (SDS) loading buffer and denatured at 95° C. for 5 minutes. 1 μg lysate was run on Jess capillary and results were analyzed by compass simple western software.
# [5] = system: oxidative phosphorylation pathway in FaDu tumors; assay: Non-targeted proteomic analysis of FaDu tumors; format: in vivo, mice
# Protocol: FaDu tumor bearing mice were treated with vehicle or HC-7366 (1, 3, or 30 mg/kg) twice a day orally for three days, and on the morning of Day 4 an AM dose was administered and tumors and plasma were collected 1 hr after dose. Tumor and plasma samples were extracted and split into equal parts for analysis on LC/MS/MS and Polar LC platforms. Proprietary software was used to match ions to an in-house library of standards for metabolite identification and for metabolite quantitation by peak area integration (Metabolon). Proteomic analysis on tumors was performed at MS Bioworks. The equivalent of 3 μg of peptide from each pooled fraction was analyzed by nano LC-MS/MS with a Waters M-Class HPLC system interfaced to a ThermoFisher Fusion Lumos mass spectrometer. Histograms show metabolite levels of treatment groups normalized to vehicle control (FIGS. 115-122).
# FaDu tumor bearing mice were treated with HC-7366 at 3 and 30 mg/kg twice a day for four days. Tumors were harvested for non-targeted proteomic analysis.
# [6] = system: Ki67 positive cells in DLD-1 tumor sections; assay: IHC staining of Ki67 in DLD-1 tumor sections; format: in vivo, mice
# Protocol: as §3
# DLD-1 tumor bearing mice were treated with HC-7366 at 0.3, 1, 3, 10 and 30 mg/kg twice a day for 14 days. Tumors were harvested for RNAseq analysis at Day 4, Day 7 and Day 14 (FIG. 128).
smiles,measurement,setting,value
"CNC(=O)c1ncn2cc(-c3c(F)ccc(NS(=O)(=O)c4cc(Cl)cnc4OC)c3F)ncc12 [HC-7366, 6-(3-((5-chloro-2-methoxypyridine)-3-sulfonamido)-2,6-difluorophenyl)-N-methylimidazo[1,5-a]pyrazine-1-carboxamide]",tumor growth inhibition,[1],up to 80%
same,tumor growth inhibition,[2]; 1 mg/kg and 3 mg/kg twice daily oral,~78%
same,TGI %,[2]; HC-7366 3 mg/kg twice daily oral,~65%
same,TGI %,[2]; HC-7366 30 mg/kg twice daily oral,~21%
same,body weight loss,[3],No treatment related body weight loss
same,"levels of ATF4, ASNS and PSAT1",[4],GCN2-dependent increase
same,"oxidative phosphorylation pathway, pathway analysis (IPA)","[5]; 3 mg/kg twice a day, four days",strong repression
same,protein subunits of the electron transport chain,"[5]; 3 mg/kg, relative to vehicle",decreased
same,Ki67 positive cancer cells,"[6]; Day 4, 0.3, 10 or 30 mg/kg",not at the less efficacious doses
same,Ki67 positive cancer cells,"[6]; Day 4, 1 and 3 mg/kg",significantly reduced
